Reference: patent US20070020241A1, “Use of photosensitisation” (priority 2003, published 2007)

Legend:
S. aureus 8325-4 [1] = assay: Targeted photodynamic therapy using Φ11-SnCe6 conjugates and a laser light source; type: cell-based, Staphylococcus aureus; settings: 1.15 μg ml^−1 SnCe6, 633 nm 35 mW HeNe laser 5 minutes (21 J/cm^2)
Procedure: Bacteriophage Φ11 was propagated and precipitated as described above for phage 75, except that S aureus strain 8325-4 was used as the propagating strain. Tin chlorin e6 (SnCe6) was conjugated onto Staphylococcus phage Φ11 using the method described above, achieving bound concentrations of 2.3 and 3.5 μg ml^−1 SnCe6 with the phage Φ11 at 4.7×10^7 pfu.ml^−1. […] The final concentration of conjugated SnCe6 was 1.15 μg ml^−1.
The light source was a 35 mW Helium/Neon laser and irradiation (when used) was for 5 minutes in the case of FIGS. 3 and 4, and for 10 minutes in the case of FIG. 5.

EMRSA-16 = assay: Lethal photosensitisation using phage 75-SnCe6 conjugate and a white light source; type: cell-based, Staphylococcus aureus; settings: for % kill (L+S+): vs PBS in the dark
Source text: (§1) Bacterial strains: S. aureus 8325-4 • EMRSA-16
(§2) Light source: KL200 (Schott). This is a 20-watt halogen cold light source. The light guide attached to it is a flexible optic fibre bundle which is directed onto a 96 well plate at a distance of 5 cm. A square of 4-wells is placed at the centre of the light source.
(§3) Approx light intensity=44,000 lux or 470 μW/nm
(§4) Phage 75 was conjugated to SnCe6 as described above. Phages were used at a concentration of 1×10^7 pfu/ml.
(§5) Overnight cultures of S. aureus grown in nutrient broth were centrifuged, resuspended in PBS and adjusted to an OD of 0.05 at 600 nm (approximately 4×10^7 cfu/ml)
(§6) 50 μl of bacterial culture was aliquoted into a 96-well plate and 50 μl of the one of the following solutions added to the wells: • 1) 3.5 μg/ml SnCe6-phage 75 (final concentration 1.75 μg/ml, 1×10^6 pfu/well) in PBS • 2) 1.75 μg/ml SnCe6-phage 75 (final concentration 0.875 μg/ml, 5×10^5 pfu/well) in PBS • 3) 3.5 μg/ml SnCe6 in PBS (final concentration 1.75 μg/ml) • 4) 1.75 μg/ml SnCe6 in PBS (final concentration 0.875 μg/ml) • 5) PBS • 6) Phage 75 at a concentration of 5×10^5 or 1×10^6 pfu/well in PBS
(§7) Wells were either exposed to white light (4 wells at a time) or wrapped in tin foil and stored in the dark.
(§8) After various exposure times an aliquot was taken from each well, serially diluted and spread onto Columbia blood agar. Agar plates were incubated overnight at 37° C. and counted the next day.

S. aureus 8325-4 [2] = assay: as above; type: cell-based, Staphylococcus aureus; settings: for % kill (L+S+): vs PBS in the dark
Source text: as §1, §2, §3, §4, §5, §6, §7, §8

[3] = system: Streptococcus pyogenes ATCC 12202; assay: Lethal photosensitization of Streptococcus pyogenes using SnCe6 and laser light; type: cell-based
Procedure: (§9) streptococcus pyogenes ATCC 12202 was grown in Brain Heart Infusion broth at 37° C. in an atmosphere consisting of 5% CO2 in air. The cells were harvested by centrifugation and re-suspended in phosphate buffered saline (PBS) and diluted to 1×10^7 cfu/ml in PBS. 20 μl samples of the diluted bacterial suspension were then placed into wells of a 96-well plate, together with a magnetic stirrer bar. 100 μl of different concentrations (1-50 μg/ml) of the SnCe6 in PBS was added to the bacterial suspensions. Controls were performed with 100 μl PBS added to the bacteria and either irradiated (L+S−) or kept in the dark (L−S−). The experiment was carried out in duplicate.
(§10) After incubation, the contents of some of the wells were exposed to light from the 35 mW Helium/Neon laser emitting light with a wavelength of 633nm for 10 min, with stirring, corresponding to an energy density of 42 J/cm^2. Aluminium foil was placed in the surrounding wells to allow any escaping laser light to be reflected back into the target well. Control wells were not irradiated with laser light.
After exposure to the laser light, 100 μl samples were immediately taken from each well and serially diluted, from 10^−1 to 10^−5, in 1 ml TSY in 1.5 ml Eppendorf tubes. Duplicate 50 μl aliquots of each dilution were then spread out on half a CBA plate. The plates were placed in a 37° C. incubator for up to 48 h and the resulting colonies were counted to determine the number of surviving organisms.

[4] = system: Propionibacterium acnes ATCC 29399; assay: Lethal photosensitization of Propionibacterium acnes using SnCe6 and laser light; type: cell-based
Procedure: as §9, with “Propionibacterium acnes ATCC 29399” for “streptococcus pyogenes ATCC 12202”, “acnes ATCC 29399 was grown” for “pyogenes ATCC 12202 was grown”, “grown in pre-reduced Brain Heart” for “grown in Brain Heart”, “in an anaerobic atmosphere. The cells” for “in an atmosphere consisting of 5% CO2 in air. The cells”, “diluted to 1×10^8 cfu/ml in” for “diluted to 1×10^7 cfu/ml in”
as §10, with “633 nm” for “633nm”
After exposure to the laser light, 100 μl samples were immediately taken from each well and serially diluted, from 10^−1 to 10^−5, in 1 ml of pre-reduced TSY in 1.5 ml Eppendorf tubes. Duplicate 50 μl aliquots of each dilution were then spread out on half a CBA plate. The plates were incubated anaerobically at 37° C. and the resulting colonies were counted to determine the number of surviving organisms.

16 strains of EMRSA = settings: red light, higher light doses; cited from earlier work
[5] = white light 10 min, final photosensitiser 0.875 μg/ml
[6] = white light 10 min, final photosensitiser 1.75 μg/ml
[7] = white light 20 min, final photosensitiser 1.75 μg/ml
[8] = without exposure to white light
[9] = 633 nm laser 10 min, 42 J/cm^2, 1-50 μg/ml
[10] = dark, increasing concentrations (1-50 μg/ml)
[11] = photosensitiser 50 μg/ml, 633 nm laser 10 min, 42 J/cm^2

Molecule	% kill (compared to control counts in phosphate buffered saline) (S. aureus 8325-4 [1])	% kill (L+S+) (EMRSA-16; [5]) [%]	% kill (L+S+) (EMRSA-16; [6]) [%]	% kill (L+S+) (EMRSA-16; [7]) [%]	bacterial counts of controls vs unirradiated suspension without photosensitiser (EMRSA-16; [8])	% kill (L+S+) (S. aureus 8325-4 [2]; [5]) [%]	% kill (L+S+) (S. aureus 8325-4 [2]; [6]) [%]	% kill (L+S+) (S. aureus 8325-4 [2]; [7]) [%]	bacterial counts of controls vs unirradiated suspension without photosensitiser (S. aureus 8325-4 [2]; [8])	effect on the viable count, irradiation [3, 9]	effect on the viable count, incubation in the dark [3, 10]	% kill of the organism [3, 11] [%]	effect on the viable count, irradiation [4, 9]	effect on the viable count, incubation in the dark [4, 10]	% kill of the organism [4, 11] [%]	% killing (16 strains of EMRSA) [%]
C=CC1=C(C)C2=CC3=NC(=C(CC(=O)[O-])C4=NC(=C(C)C4=C([O-])[O-])C=c4[n-]c(c(C)c4CC)=CC1=N2)C(CCC(=O)[O-])C3C.[H+].[Sn+4] (stereo not shown) [SnCe6, tin (IV) chlorin e6]	did not achieve any kill	0	0	99.78	not significantly different	45.3	97.8	97.9	not significantly different	concentration-dependent decrease in the viable count	no significant effect	99.9997	concentration-dependent decrease in the viable count	no significant effect	100	–
aluminium disulphonated phthalocyanine [AlPcS2]	–	–	–	–	–	–	–	–	–	–	–	–	–	–	–	100
